The subject of test [1] is T-lymphoblastic leukemia cell line CEM. The test can be described thus: MTT cytotoxicity assay, CEM. It is filed as cell-based, human. The settings on record: 72 hours (TCS50 in the method). The source says:
(§1) One of the parameters used as the basis for colorimetric assays is the metabolic activity of viable cells. For example, a microtiter assay, which uses the tetrazolium salt MTT, is now widely used to quantitate cell proliferation and cytotoxicity. For instance, this assay is used in drug screening programs and in chemosensitivity testing. Because only metabolically active cells cleave tetrazolium salts, these assays detect viable cells exclusively. In the case of MTT assay, yellow soluble tetrazolium salt is reduced to coloured water-insoluble formazan salt. After it is solubilized, the formazan formed can easily and rapidly be quantified in a conventional ELISA plate reader at 570 nm (maximum absorbance). The quantity of reduced formazan corresponds to number of vital cells in the culture. Human T-lymphoblastic leukemia cell line CEM; promyelocytic HL-60 and monocytic U937 leukemias; breast carcinoma cell lines MCF-7, BT549, MDA-MB-231; glioblastoma U87MG cells; cervical carcinoma cells HELA; sarcoma cells U20S and Saos2; hepatocellular carcinoma HepG2; mouse immortalized bone marrow macrophages B2.4 and B10A.4; P388D1 and L1210 leukemia; B16 and B16F10 melanomas were used for routine screening of the compounds according to the invention. The cells were maintained in Nunc/Corning 80 cm^2 plastic tissue culture flasks and cultured in cell culture medium (DMEM with 5 g/l glucose, 2 mM glutamine, 100 U/ml penicillin, 100 μg/ml streptomycin, 10% fetal calf serum and sodium bicarbonate).
(§2) The cell suspensions that were prepared and diluted according to the particular cell type and the, expected target cell density (2500-30000 cells per well based on cell growth characteristics) were added by pipette (80 μl) into 96-well microtiter plates. Inoculates were allowed a pre-incubation period of 24 hours at 37° C. and 5% CO2 for stabilisation. Four-fold dilutions of the intended test concentration were added at time zero in 20 μl aliquots to the microtiter plate wells. Usually, test compound was evaluated at six 4-fold dilutions. In routine testing, the highest well concentration was 266.7 μM, but it can be the matter of change dependent on the agent. All drug concentrations were examined in duplicates. Incubations of cells with the test compounds lasted for 72 hours at 37° C., in 5% CO2 atmosphere and 100% humidity. At the end of incubation period, the cells were assayed by using the MTT. Ten microliters of the MTT stock solution were pipetted into each well and incubated further for 1-4 hours. After this incubation period, formazan was solubilized by addition of 100 μl/well of 10% SDS in water (pH=5.5) followed by further incubation at 37° C. overnight. The optical density (OD) was measured at 540 nm with the Labsystem iEMS Reader MF (UK). The tumour cell survival (TCS) was calculated using the following equation: TCS=(ODdrug exposed well/mean ODcontrol wells)×100%. The TCS50 value, the drug concentration lethal to 50% of the tumour cells, was calculated from the obtained dose response curves.
(§3) The cytoxicity of novel compounds was tested on panel of cell lines of different histogenetic and species origin (Table 7). Equal activities were found in all tumour cell lines tested. […] Importantly, this observation distinguishes the purine derivatives of the invention from flavopiridol and related compounds, as their biological activity is dependent on p53 status.

A further test deals with normal human lymphocytes. The experiment in a line: concanavalin A induced lymphocyte proliferation, [3H]-TdR incorporation. The settings on record: 72 hours, read-out: ED50 (the source's name). It is filed as cell-based. The procedure: Human heparinized peripheral blood was obtained from healthy volunteers by cubital vein punction. The blood was diluted in PBS (1:3) and mononuclear cells were separated by centrifugation in Ficoll-Hypaque density gradient (Pharmacia, 1.077 g/ml) at 2200 rpm for 30 minutes. Following centrifugation, lymphocytes were washed in PBS and resuspended in cell culture medium (RMPI 1640, 2 mM glutamine, 100 U/ml penicillin, 100 μg/ml streptomycin, 10% fetal calf serum and sodium bicarbonate).
The cells were diluted at target density of 1100000 cells/ml and were added by pipette (180 μl) into 96/well microtiter plates. Four-fold dilutions of the intended test concentration were added at time zero in 20 μl aliquots to the microtiter plate wells. Usually, test compound was evaluated at six 4-fold dilutions. In routine testing, the highest well concentration was 266.7 μM. All drug concentrations were examined in duplicates. All wells with exception of unstimulated controls were activated with 50 μl of concanavalin A (25 μg/ml). Incubations of cells with test compounds lasted for 72 hours at 37° C., in 5% CO2 atmosphere and 100% humidity. At the end of incubation period, the cells were assayed by using the [^3H]-TdR:
Cell cultures were incubated with […] (20 μl of stock solution 500 μCi/ml) per well for 6 hours at 37° C. and 5% CO2. The automated cell harvester was used to lyse cells in water and adsorb the DNA onto glass-fiber filters in the format of microtiter plate. The DNA incorporated [^3H]-TdR was retained on the filter while unincorporated material passes through. The filters were dried at room temperature overnight, sealed into a sample bag with 10-12 ml of scintillant. The amount of [^3H]-TdR present in each filter (in cpm) was determined by scintillation counting in a Betaplate liquid scintillation counter. The effective dose of immunosuppressant (ED) was calculated using the following equation: ED=(cpmdrug exposed well/mean cpmcontrol wells)×100%. The EDs50 value, the drug concentration inhibiting proliferation of 50% of lymphocytes, was calculated from the obtained dose response curves.
To evaluate immunosuppressive activity of substituted adenines, their ability to inhibit polyclonal mitogen induced proliferation of normal human lymphocytes was analyzed (Table 8). […] Effective immunosuppressive dose of new derivatives under in vitro conditions was close to 1-20 μM.

For the next test, the target named is T1, CDC2 (Homo sapiens, UniProt P06493).
T1 construct: made in house; host or cells: Sf9 insect cells, baculovirus co-infection
The experiment in a line: p34cdc2 (CDC2) kinase inhibition assay, histone H1 substrate. It is filed as biochemical.

For a further test, the system named is B16 melanoma. The experiment in a line: MTT cytotoxicity assay, B16. The settings on record: 72 hours (TCS50 in the method). It counts as cell-based, mouse.
Source text: as §1, §2, §3

The test system of the next test is β-adrenergic receptors. The experiment in a line: isoproterenol-induced intracellular cAMP synthesis in rat C6 glioma. It counts as cell-based. The settings on record: cAMP induced by 5 μM (−) isoproterenol, 30 min; for Effect: rat C6 glioma. The procedure: Rat C6 glioma (ATCC N° CCL107) was cultivated in monolayer in serum-free chemically defined medium containing Ham's F10/minimal essential medium (1:1 vol/vol), 2 mM L-glutamine, 1% (vol/vol) minimal essential medium vitamins (100×), 1% (vol/vol) minimal essential medium nonessential amino acids (100×), 100 U/ml penicillin, 100 μg/ml streptomycin and 30 nM sodium selenite. Incubation was at 37° C. in a humidified atmosphere. Assays were performed in the logaritmic growth phase at a density of 2.5×10^5 cells/cm^2. Intracellular cAMP synthesis was induced by addition of 5 μM (−) isoproterenol. After 30 min incubation at 37° C. the medium was removed and the cellular amount of cAMP determined using the cAMP-enzyme immunoassay kit of Amersham. The IC50 is determined from a dose-response curve in duplicate. The effect of seven purine-analogs was measured after simultaneous addition with isoproterenol.
As P2Y1-like and A2 purinergic receptors, negatively and positively coupled to adenylate cyclase respectively, are present on rat C6 glioma the modulation of the synthesis of cAMP may be due to inhibition of the activation of β-adrenergic receptors by isoproterenol or to activation of purinergic receptors.

A further test has as its target IκB-α. The experiment in a line: IκB-α kinase-inhibitory activity. It is filed as biochemical. The source says: Modification of 2,6,9-trisubstituted purines by a catechol-like substituent at R6 leads to an increase in cdk inhibitory activity of the tested compounds.

Structures are written as SMILES.

T1 sequence (P06493 whole entry, species assumed): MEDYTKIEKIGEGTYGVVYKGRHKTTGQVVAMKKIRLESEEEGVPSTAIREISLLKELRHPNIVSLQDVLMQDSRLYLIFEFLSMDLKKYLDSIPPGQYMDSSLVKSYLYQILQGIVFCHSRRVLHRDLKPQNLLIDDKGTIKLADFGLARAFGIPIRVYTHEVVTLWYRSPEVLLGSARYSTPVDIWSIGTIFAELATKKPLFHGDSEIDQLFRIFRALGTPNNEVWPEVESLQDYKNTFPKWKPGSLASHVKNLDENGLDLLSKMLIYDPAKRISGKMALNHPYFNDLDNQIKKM
T1 sequence (P14635 whole entry partner, species assumed): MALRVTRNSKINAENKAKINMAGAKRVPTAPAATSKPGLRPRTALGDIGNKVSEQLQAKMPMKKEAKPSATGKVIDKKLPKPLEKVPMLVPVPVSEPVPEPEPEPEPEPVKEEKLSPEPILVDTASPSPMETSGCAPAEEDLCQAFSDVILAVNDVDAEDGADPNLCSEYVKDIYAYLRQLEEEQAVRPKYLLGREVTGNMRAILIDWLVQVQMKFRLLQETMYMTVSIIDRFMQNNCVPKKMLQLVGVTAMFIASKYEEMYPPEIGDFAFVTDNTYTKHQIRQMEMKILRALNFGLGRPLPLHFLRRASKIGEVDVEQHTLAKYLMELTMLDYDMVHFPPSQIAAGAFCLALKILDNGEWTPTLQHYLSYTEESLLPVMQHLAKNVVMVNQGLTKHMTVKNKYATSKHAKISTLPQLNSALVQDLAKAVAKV
Experimental for CDC2: Cyclin-dependent kinases (p34^cdc2, p33^cdk2, p33^cdk4 and cyclins (cyclin B, E and DI) are produced in Sf9 insect cells coinfected with appropriate baculoviral constructs. The cells are harvested 68-72 hrs post infection in lysis buffer for 30 min on ice and the soluble fraction is recovered by centrifugation at 14.000 g for 10 min. The protein extract is stored at −80° C.
To carry out experiments on kinetics under linear conditions, the final point test system for kinase activity measurement is used. The kinase is added to the reaction mixture in such a way that linear activity is obtained with respect to the concentration of enzyme and with respect to time.
Inhibition of p33^cdk4 kinase is determined with Rb-GST (0.2 mg/ml) as the substrate. Kinase activity is determined at 30° C. in kinase buffer.
Tested compounds are usually dissolved to 100 mM solutions in DMSO, the final concentration of DMSO in reaction mixture never exceeds 1%. The controls contain suitable dilutions of DMSO. After 10 min, the addition of 3×SDS sample buffer stops the incubations. […] The measurement of kinase activity is done using digital image analysis. The kinase activity is expressed as a percentage of maximum activity, the apparent inhibition constants are determined by graphic analysis. Kinase buffer: 50 mM Hepes pH 7.4, 10 mM MgCl21 5 mM EGTA, 10 mM 2-glycerolphosphate,

`CC(C)n1cnc2c(NC(CO)c3ccccc3)nc(NCCO)nc21` (racemic): the IC50 came out at 18 µM in test [1], 1400 nM on CDC2 (Table 3) and 19 µM in the test with B16 melanoma. Further, the EC50 in the test with normal human lymphocytes stood at 38 µM.
Take `CC(C)C(CO)Nc1nc(NCc2ccccc2)c2ncn(C(C)C)c2n1` (stereo not shown) [P30]: in the test with β-adrenergic receptors, the Effect entry is “inhibition”. Moreover, the IC50 on β-adrenergic receptors (read-out: I50) came out at 45 ± 5 µM.
For `CC[C@H](CO)Nc1nc(NC(CO)c2ccccc2)c2ncn(C(C)C)c2n1` (stereo partly shown), the results for the IC50 (at IκB-α (Table 3); in test [1]; in the test on B16 melanoma) were 2150 nM, 15 µM and 13.5 µM, respectively. The EC50 in the test with normal human lymphocytes came to 12 µM.
With `Cn1cnc2c(NCc3ccc(O)c(O)c3)nc(NCCO)nc21`, the IC50 against IκB-α (Table 3) was determined as 10800 nM; against CDC2 (Table 3) it was 4200 nM.
`CCCCCCNc1nc(N(C)CCc2ccc(O)c(O)c2)c2ncn(C(C)C)c2n1`: the values for the IC50 (in test [1]; at CDC2 (Table 3); in the test on B16 melanoma) were 33 µM, 2600 nM and 32 µM, respectively. In the test with normal human lymphocytes, the EC50 was determined as 15 µM.
`CC(O)CNc1nc(NC(CO)c2ccccc2)c2ncn(C(C)C)c2n1` (stereo not shown) [P39]: the Effect entry in the test on β-adrenergic receptors is “inactive”.
With `Cn1cnc2c(NC(CO)c3ccccc3)nc(NCCO)nc21` (racemic), the IC50 on IκB-α (Table 3) was 13700 nM; against CDC2 (Table 3), 5600 nM.
The matching figures for `CN(CCc1ccc(O)c(O)c1)c1nc(NCCO)nc2c1ncn2C`: 25400 nM and 10200 nM.
Consider `CC[C@@H](CO)Nc1nc(N[C@@H](CO)c2ccccc2)c2ncn(C(C)C)c2n1` [P38], for which the Effect entry in the test on β-adrenergic receptors is “inactive”.
Consider `CC(C)[C@H](CO)Nc1nc(NC(CO)c2ccccc2)c2ncn(C(C)C)c2n1` (stereo partly shown), for which the IC50 at IκB-α (Table 3, unit nM) stood at 670 nM; at CDC2 (Table 3, unit nM) it was 540 nM.
For `CC(C)[C@H](CO)Nc1nc(N(C)CCc2ccc(O)c(O)c2)c2ncn(C(C)C)c2n1`, the IC50 against IκB-α (Table 3, unit nM) was determined as 460 nM; in test [1] it was 8 µM; against CDC2 (Table 3, unit nM), 390 nM; in the test with B16 melanoma, 9 µM. In addition, in the test on normal human lymphocytes, the EC50 came to 0.54 µM.
Take `CC(C)[C@H](CO)Nc1nc(NCc2ccc(O)c(O)c2)c2ncn(C(C)C)c2n1`: the IC50 stood at 320 nM against IκB-α (Table 3, unit nM) and 250 nM at CDC2 (Table 3, unit nM).
With `CC(C)n1cnc2c(NC(CO)c3ccccc3)nc(NC[C@@H](C)O)nc21` (stereo partly shown), the IC50 was 70 µM in test [1] and 74.6 µM in the test with B16 melanoma. Besides, in the test on normal human lymphocytes, the EC50 was 23 µM.
For `CC[C@H](CO)Nc1nc(NCc2ccc(O)c(O)c2)c2ncn(C(C)C)c2n1`, the IC50 on IκB-α (Table 3) amounted to 1250 nM; in test [1], 8 µM; with B16 melanoma it was 9 µM.

These data come from patent US20030187261A1, “Purine derivatives, process for their preparation and use thereof” (priority 2000, published 2003).
